From US20130116326A1, “TREATMENT OF DELAYED CUTANEOUS HYPERSENSITIVITY CONDITIONS WITH S-FARNESYLTHIOSALICYLIC ACID AND ANALOGS THEREOF” (RAMOT AT TEL-AVIV UNIVERSITY LTD., priority 2010, published 2013)
“Also recorded” adds a separate entry of the source.

Columns and labels:
[1] = test system: Rap1; assay: GST pull-down of GTP.Rap1 (Rap1 GTP loading) in Jurkat T cells; assay type: cell-based, human; conditions: for lowering of the amount of GTP.Rap1: Jurkat T cells treated overnight, then stimulated with anti CD3 antibodies for 10 minutes, FIG. 1C; for amount of GTP.Rap1 compared with untreated cells: quiescent Jurkat T cells, treated overnight, 50 μM, FIG. 1A; for ability to inhibit Rap1 activation, comparison among agents: 50 μM overnight
Procedure: (§1) Jurkat T cells were obtained from the American Type Culture Collection (ATCC) (Manassas, VA). The cells were maintained in RPMI 1640 supplemented with 10% FCS, 2 mM 1-glutamine, and 1% penicillin/streptomycin (Biological Industries, Kibutz Beit Haemek, Israel). Panc-1 cells (ATCC) were grown in Dulbecco's modified Eagle medium (DMEM) containing 10% FCS, 2 mM 1-glutamine, and 1% penicillin/streptomycin. The cells were incubated at 37° C. in a humidified atmosphere of 95% air and 5% CO2. Transfection of Jurkat cells was performed with DMRIE-C (Invitrogen, Carlsbad, Calif.), and cells were examined 24 to 48 hours later. Jurkat T cells were serum starved at 37° C. for 2 to 6 hours, followed by stimulation with 5 μg/ml of mouse anti-human CD3.
(§2) Detection of activated Ras and Rap1 was performed as described previously (4, 9).
Samples were separated by SDS-PAGE using 10% polyacrylamide gels and transferred to nitrocellulose filters. Blots were blocked for 1 hour in TBST (10 mM Tris-HCl (pH 8.0), 150 mM NaCl, and 0.05% Tween 20) containing 3% serum bovine albumin, followed by overnight incubation at 4° C. with the primary antibodies. Blots were washed and incubated for 1 hour at room temperature with HRP-conjugated secondary antibodies. Immunoreactive bands were visualized using the LAS-3000 imaging system (Fujifilm Corp., Tokyo).
The experiments were designed to determine whether FTS and its analogs are able to inhibit GTP loading of Rap1. Quiescent Jurkat T cells were treated overnight with FTS, FTS-A, and FTS-MOM, each at a concentration of 50 μM. Cells were collected and the quantity of GTP.Rap1 was determined by pull-down assay. Compared with untreated cells (control), the amount of GTP.Rap1 decreased in all conditions (FIG. 1A). […] Since Rap1 is activated in T cells as a result of crosslinking the antigen receptor, the effect of FTS, and its analogs, on Rap1 activation in stimulated T cells, was studied. Cells were treated with FTS and its analogs overnight, and subsequently stimulated with anti CD3 antibodies for 10 minutes. […] FTS lowered the amount of GTP.Rap1 by 32%, while FTS-A and FTS-MOM lowered it by 60% and 53%, respectively (FIG. 1C). Thus, FTS and its analogs are able to inhibit Rap1 activation in T cells stimulated through the antigen receptor.

[2] = test system: contact sensitivity reaction to DNFB; assay: Contact sensitivity to DNFB, ear swelling in mice; assay type: in vivo, BALB/c female mice
Procedure: The Institutional Ethics Committee of Tel Aviv University approved the study. BALB/c female mice at 8 to 10 weeks of age were used. Oral administration of FTS-A required doses of 50 and 100 mg/kg (10). The compound 2,4-dinitro-l-fluorobenzene (DNFB) and olive oil were obtained from Sigma-Aldrich (St. Louis, Mo.). Mice were sensitized on the shaved abdomen with 50 μl of 0.5% DNFB in a vehicle of 4:1 acetone:olive oil. Mice were ear challenged with 20 μl t of 0.2% DNFB in a vehicle of 4:1 acetone:olive oil after 5 days. A constant area of the ears was measured immediately before challenge and 24 hours later with an engineer's micrometer (Ozaki Mfg. Co., Itabashi, Tokyo). Ear swelling was expressed as the difference in ear thickness before and after the challenge (11).
Next, the ability of FTS-A to inhibit Rap-1-dependent T cell adhesion in vivo was investigated by using contact sensitivity (15) as a model system. Animals were treated orally with two different concentrations of FTS-A (50 mg/kg and 100 mg/kg). […] When treatment was introduced only during the challenge phase (days 5-6), ear swelling was also attenuated.

[3] = test system: Ras; assay: Ras GTP loading in Panc-1 cells; assay type: cell-based; conditions: FIG. 6, also as previously reported (ref. 16)
Procedure: as §1, §2
(§3) Since FTS is known to inhibit Ras, experiments were designed to determine whether the mechanism of Rap1 inhibition by FTS analogs is indirect and mediated by Ras inhibition. Applicants compared the inhibitory profile of FTS and its analogs on both Ras GTP loading and Rap1 GTP loading in Panc-1 cells (FIG. 6B). […] J Med Chem 2009; 52:197-205]. […] Thus, the extent of Ras and Rap1 inhibition by FTS and its analogs is not identical.

[4] = test system: Rap1; assay: Rap1 GTP loading in Panc-1 cells; assay type: cell-based; conditions: for inhibition of Rap1 GTP loading: Panc-1 cells, FIG. 6A; for selectivity between Ras and Rap1: profile of inhibition Ras versus Rap1
Procedure: as §1, §2, §3

[5] = test system: T cells; assay: Viable cell count by tryptan blue exclusion; assay type: cell-based; conditions: various concentrations for 72 hours, higher doses, FIG. 3A
Procedure: Thus, this analog was used for further experiments. First, […] were treated with various concentrations of FTS-A for 72 hours.

[6] = test system: Rap1; assay: Confocal microscopy of Rap1 localization and activation in Jurkat T cells; assay type: cell-based, human
Procedure: Live cells were plated in 35-mm dishes containing a no. 0 glass coverslip over a 15-mm cutout (MatTek, Ashland, Mass). Cells were maintained at 37° C. using a PDMI-2 microincubator (Harvard Apparatus, Holliston, Mass.). Individual cells were imaged before and after addition of stimuli. Images were acquired with a Zeiss 510 inverted laser scanning confocal microscope (Carl Zeiss Microlmaging, Inc., Thornwood, N.Y.) and processed with Adobe Photoshop CS.
It has been reported that only the pool of Rap1 at the plasma membrane becomes GTP bound on lymphocyte activation (9). The following experiments were designed to study whether Rap1 inhibition by FTS-A is indeed restricted to that compartment. Jurkat T cells, expressing GFP tagged Rap1, were subjected to various agents (FIG. 4A), whereas the localization of Rap1 was recorded by confocal microscopy.
The effects of FTS are rather specific to the active GTP-bound forms of Ras proteins (7). To investigate the possible effect of FTS-A on localization of the active Rap1, the probe for activated Rap1, GFP-RBDRALGDS (13), was utilized. […] In cells that were pretreated by FTS-A, the activation of Rap1 at the plasma membrane was blocked (FIG. 4B) although Rap1 remained associated with the plasma membrane (FIG. 4A). Thus, the pool of Rap1 that is inhibited by FTS-A is found at the plasma membrane.

[7] = test system: Rap1; assay: Rap1 inhibition by geranylgeranyl analogue (data not shown)

Structure (SMILES) | lowering of the amount of GTP.Rap1 [1] [%] | amount of GTP.Rap1 compared with untreated cells [1] | activation phase of delayed cutaneous hypersensitivity in vivo ([2]; summary statement) | inhibition of Ras GTP loading [3] | inhibition of Rap1 GTP loading [4] | selectivity between Ras and Rap1 [4] | ability to inhibit Rap1 activation, comparison among agents ([1]; Jurkat T cells) | inhibitory effect on Rap1 when Ras is knocked down ([1]; Jurkat T cells, N-Ras and K-Ras knocked down via shRNA, FIG. 6B) | amount of GTP.Rap1, dose-response ([1]; higher doses of FTS-A, FIG. 3B) | number of viable cells [5] | activation of Rap1 at the plasma membrane ([6]; GFP-RBDRALGDS probe, pretreated cells stimulated through the antigen receptor, FIG. 4B) | localization of overexpressed Rap1 ([6]; Jurkat T cells expressing GFP tagged Rap1, treatment up to 72 hours, FIG. 4A) | localization of Rap-1 ([6]; combined treatment with Bryostatin-1 and FTS-A, FIG. 4A) | development of contact sensitivity reaction to DNFB ([2]; animal models, dose not given) | ear swelling ([2]; oral, 50 mg/kg, FIG. 5A) | ear swelling ([2]; oral, 100 mg/kg, FIG. 5A) | ear swelling ([2]; treatment during the sensitization phase (days 0-2), FIG. 5B) | ear swelling ([2]; treatment only during the challenge phase (days 5-6), FIG. 5B) | Rap1 inhibition compared with FTS analogs [7]
CC(C)=CCC/C(C)=C/CC/C(C)=C/CSc1ccccc1C(=O)O [FTS, S-trans,trans-farnesylthiosalicylic acid] | 32 | decreased | inhibits | comparable to FTS-A | relatively modest | relatively high selectivity of FTS towards Ras |  |  |  |  |  |  |  |  |  |  |  |  | 
CC(C)=CCCC(C)=CCCC(C)=CCSc1ccccc1C(N)=O [FTS-A, FTS-amide] | 60 | decreased |  |  | much greater inhibitory activity toward Rap1 than FTS | inhibited both Ras and Rap1 | superior to FTS; also recorded: greatest amount of Rap1 inhibition | unchanged | further diminished | decreased | blocked | did not change | did not change | strongly inhibited | only the higher concentration of FTS-A was able to inhibit ear swelling | able to inhibit ear swelling | did not prevent ear swelling | attenuated | 
COCOC(=O)c1ccccc1SCC=C(C)CCC=C(C)CCC=C(C)C [FTS-MOM, methoxymethyl S-farnesylthiosalicylate] | 53 | decreased |  | weak Ras inhibitor; also recorded: only a minor inhibitory effect | by far the stronger Rap1 inhibitor; also recorded: strong Rap1 inhibitor | toward Rap1 | superior to FTS |  |  |  |  |  |  |  |  |  |  |  | 
CC(C)=CCC/C(C)=C/CC/C(C)=C/CC/C(C)=C/CSc1ccccc1C(=O)O [GGTS] |  |  |  |  |  |  |  |  |  |  |  |  |  |  |  |  |  |  | did not prove to be a stronger Rap1 inhibitor
